Measurements: US4780238A (priority 1985, dated 1988)

Tested on: P. aeruginosa
Type: cell-based, Pseudomonas aeruginosa

For `O=[N+]([O-])[O-].O=[N+]([O-])[O-].O=[N+]([O-])[O-].O=[N+]([O-])[O-].[Th+4]` [Th(NO3)4, thorium nitrate], the “lag period of the organism” value was “the lag period of the organism also increased”.

With `O=[N+]([O-])[O-].O=[N+]([O-])[O-].[O]=[U+2]=[O]` [uranyl nitrate] the “inhibitory effect on growth” value was “stronger inhibitory effect on growth of the organism than thorium”.
